Experimental data published in PubChem BioAssay AID2060490 (Molecular Pharmacology Branch, DTP, NCI, 2025).
Each block holds one compound with its values, some of them ahead of it.

Test system: 885512-296-R-J2-PDC complex spheroid viability
Experiment: Anticancer human tumor 885512-296-R-J2-PDC patient-derived breast carcinoma cell line growth inhibition [GQUAD]
Conditions: for IC50: curve of first compound; for viability, T/C: stronger effect = lower value
Summary of the method: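 Multi-cell-type spheroids of tumor cells with HUVEC and mesenchymal stem cells, treated with drug combinations. Concentrations descend in half-log steps from near clinical Cmax, or from 10 microM where Cmax is unknown; viability read-out.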

[1] = second compound 0.0316 µM, first compound 0.0316 µM
[2] = second compound 0.0316 µM, first compound 0.316 µM
[3] = second compound 0.1 µM, first compound 0.0316 µM
[4] = second compound 0.1 µM, first compound 0.316 µM
[5] = second compound 0.316 µM, first compound 0.0316 µM
[6] = second compound 0.316 µM, first compound 0.316 µM
[7] = second compound 1 µM, first compound 0.0316 µM
[8] = second compound 1 µM, first compound 0.316 µM
[9] = second compound 3.16 µM, first compound 0.0316 µM
[10] = second compound 3.16 µM, first compound 0.316 µM
[11] = second compound 10 µM, first compound 0.0316 µM
[12] = second compound 10 µM, first compound 0.316 µM
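Note: spheroids exposed to the compounds for one week.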
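Throughout, for viability, T/C: percent of tumor spheroid viability relative to DMSO vehicle control wells.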

IC50 (second compound 0.0316 µM): 60.1 nM
IC50 (second compound 0.1 µM): < 31.6 nM
IC50 (second compound 0.316 µM): < 31.6 nM
IC50 (second compound 1 µM): < 31.6 nM
IC50 (second compound 3.16 µM): < 31.6 nM
IC50 (second compound 10 µM): < 31.6 nM
Structure (SMILES): COc1cccc2c1C(=O)c1c(O)c3c(c(O)c1C2=O)CC(O)(C(=O)CO)CC3OC1CC(N)C(O)C(C)O1 (centres undefined) + Cc1cnc(CNC(=O)c2c(=O)c3ccc(N4CCCN(C)CC4)nc3n3c2sc2ccccc23)cn1
viability, T/C [1]: 71%
viability, T/C (second compound 0.0316 µM, first compound 0.1 µM): 30.1%
viability, T/C [2]: 21.9%
viability, T/C (second compound 0.0316 µM, first compound 1 µM): 4.72%
viability, T/C (second compound 0.0316 µM, first compound 3.16 µM): 0.41%
viability, T/C (second compound 0.0316 µM, first compound 10 µM): 2.74%
viability, T/C [3]: 50.4%
viability, T/C (second compound 0.1 µM, first compound 0.1 µM): 27.2%
viability, T/C [4]: 20.9%
viability, T/C (second compound 0.1 µM, first compound 1 µM): 10.3%
viability, T/C (second compound 0.1 µM, first compound 3.16 µM): 0.59%
viability, T/C (second compound 0.1 µM, first compound 10 µM): 2.89%
viability, T/C [5]: 28.2%
viability, T/C (second compound 0.316 µM, first compound 0.1 µM): 23.7%
viability, T/C [6]: 18.5%
viability, T/C (second compound 0.316 µM, first compound 1 µM): 8.18%
viability, T/C (second compound 0.316 µM, first compound 3.16 µM): 0.4%
viability, T/C (second compound 0.316 µM, first compound 10 µM): 1.91%
viability, T/C [7]: 19.8%
viability, T/C (second compound 1 µM, first compound 0.1 µM): 25.2%
viability, T/C [8]: 13.7%
viability, T/C (second compound 1 µM, first compound 1 µM): 3.8%
viability, T/C (second compound 1 µM, first compound 3.16 µM): 0.09%
viability, T/C (second compound 1 µM, first compound 10 µM): 0.32%
viability, T/C [9]: 26.7%
viability, T/C (second compound 3.16 µM, first compound 0.1 µM): 25.6%
viability, T/C [10]: 15.1%
viability, T/C (second compound 3.16 µM, first compound 1 µM): 0.12%
viability, T/C (second compound 3.16 µM, first compound 3.16 µM): 0.12%
viability, T/C (second compound 3.16 µM, first compound 10 µM): 0.15%
viability, T/C [11]: 0.07%
viability, T/C (second compound 10 µM, first compound 0.1 µM): 0.14%
viability, T/C [12]: 0.22%
viability, T/C (second compound 10 µM, first compound 1 µM): 0.15%
viability, T/C (second compound 10 µM, first compound 3.16 µM): 0.2%
viability, T/C (second compound 10 µM, first compound 10 µM): 0.21%

IC50 (second compound 0.0316 µM): 43.5 nM
IC50 (second compound 0.1 µM): 3.57 nM
IC50 (second compound 0.316 µM): < 0.999 nM
IC50 (second compound 1 µM): < 0.999 nM
IC50 (second compound 3.16 µM): < 0.999 nM
IC50 (second compound 10 µM): < 0.999 nM
Structure (SMILES): Cn1ncnc1[C@H]1c2n[nH]c(=O)c3cc(F)cc(c23)N[C@@H]1c1ccc(F)cc1 + Cc1cnc(CNC(=O)c2c(=O)c3ccc(N4CCCN(C)CC4)nc3n3c2sc2ccccc23)cn1
viability, T/C (second compound 0.0316 µM, first compound 0.000999 µM): 89.2%
viability, T/C (second compound 0.0316 µM, first compound 0.00316 µM): 83.8%
viability, T/C (second compound 0.0316 µM, first compound 0.00999 µM): 73.5%
viability, T/C [1]: 57%
viability, T/C (second compound 0.0316 µM, first compound 0.0999 µM): 34.4%
viability, T/C [2]: 25.5%
viability, T/C (second compound 0.1 µM, first compound 0.000999 µM): 51.7%
viability, T/C (second compound 0.1 µM, first compound 0.00316 µM): 57.4%
viability, T/C (second compound 0.1 µM, first compound 0.00999 µM): 37.1%
viability, T/C [3]: 34%
viability, T/C (second compound 0.1 µM, first compound 0.0999 µM): 27.3%
viability, T/C [4]: 21.1%
viability, T/C (second compound 0.316 µM, first compound 0.000999 µM): 31.3%
viability, T/C (second compound 0.316 µM, first compound 0.00316 µM): 24%
viability, T/C (second compound 0.316 µM, first compound 0.00999 µM): 24.2%
viability, T/C [5]: 20.5%
viability, T/C (second compound 0.316 µM, first compound 0.0999 µM): 24%
viability, T/C [6]: 20.1%
viability, T/C (second compound 1 µM, first compound 0.000999 µM): 27.4%
viability, T/C (second compound 1 µM, first compound 0.00316 µM): 22.9%
viability, T/C (second compound 1 µM, first compound 0.00999 µM): 24.3%
viability, T/C [7]: 19.2%
viability, T/C (second compound 1 µM, first compound 0.0999 µM): 20%
viability, T/C [8]: 21.6%
viability, T/C (second compound 3.16 µM, first compound 0.000999 µM): 30.3%
viability, T/C (second compound 3.16 µM, first compound 0.00316 µM): 26.9%
viability, T/C (second compound 3.16 µM, first compound 0.00999 µM): 23.2%
viability, T/C [9]: 26.2%
viability, T/C (second compound 3.16 µM, first compound 0.0999 µM): 21.3%
viability, T/C [10]: 22.2%
viability, T/C (second compound 10 µM, first compound 0.000999 µM): 0.17%
viability, T/C (second compound 10 µM, first compound 0.00316 µM): 0.23%
viability, T/C (second compound 10 µM, first compound 0.00999 µM): 0.25%
viability, T/C [11]: 0.19%
viability, T/C (second compound 10 µM, first compound 0.0999 µM): 0.2%
viability, T/C [12]: 0.23%
